The record followed here is the supplement of paper PMC9103864.

In assay [1] the test system is BMSC (primary human bone marrow mesenchymal stromal cells). Nature of the assay: drug sensitivity score (DSS); higher = more sensitive.
Assay [2] has the same test system. Nature of the assay: absolute EC50 for viability; higher = less sensitive.

Compound `Cn1ncc(Cl)c1-c1cc(C(=O)N[C@H](CN)Cc2ccc(F)c(F)c2)oc1Cl` [Uprosertib] displayed a drug sensitivity score in assay [1] of 2.4. Also, the “absolute EC50 for viability” value in assay [2] was more than 10000 nM.

For the compound `CONC(=O)c1ccccc1Nc1cc(Nc2cc(C)nn2C(C)C)ncc1Cl`, in assay [1], the drug sensitivity score amounted to 0.1. Moreover, the “absolute EC50 for viability” value in assay [2] is more than 1000 nM.

With `Cc1ccc(NC(=O)c2ccc(CN3CC[C@H](N(C)C)C3)c(C(F)(F)F)c2)cc1Nc1nccc(-c2cncnc2)n1` [Bafetinib], in assay [1], the drug sensitivity score worked out at 1.9. In assay [2], the “absolute EC50 for viability” value was more than 1000 nM.

Regarding `C=CCn1c(=O)c2cnc(Nc3ccc(N4CCN(C)CC4)cc3)nc2n1-c1cccc(C(C)(C)O)n1` [AZD1775], the drug sensitivity score in assay [1] was 4.8. Further, the “absolute EC50 for viability” value in assay [2] is more than 10000 nM.

With `COc1nc(N)nc2c1ncn2[C@@H]1O[C@H](CO)[C@@H](O)[C@@H]1O` [Nelarabine], the drug sensitivity score in assay [1] was determined as 0. Further, the “absolute EC50 for viability” value in assay [2] is more than 10000 nM.

`O=c1sn(-c2cccc3ccccc23)c(=O)n1Cc1ccccc1` [Tideglusib]: in assay [1], the drug sensitivity score is 0. Further, the “absolute EC50 for viability” value in assay [2] is more than 3000 nM.

Turning to `CC(=O)N(O)CCCCCNC(=O)CCC(=O)N(O)CCCCCNC(=O)CCC(=O)N(O)CCCCCN` [Deferoxamine], the drug sensitivity score in assay [1] came to 0. Besides, the “absolute EC50 for viability” value in assay [2] is more than 10000 nM.

For `COc1cc2c(cc1OC(C)C)[C@H](c1ccc(Cl)cc1)N(c1ccc(N(C)C[C@H]3CC[C@H](N4CCN(C)C(=O)C4)CC3)cc1)C(=O)C2` [NVP-CGM097], the drug sensitivity score in assay [1] came to 9.2. In addition, the “absolute EC50 for viability” value in assay [2] worked out at 4610 nM.

For the compound `CNc1nc(-c2ccc3c(N)n[nH]c3c2)cc(N2C[C@@H](C(=O)NC3CCCCC3)CC[C@H]2C)n1`, in assay [1], the drug sensitivity score came to 5.4. In assay [2], the “absolute EC50 for viability” value was more than 10000 nM.

In assay [1], `COc1ccc(COc2cc3oc(=O)c4cc(C(C)O)ccc4c3cc2OC)cc1` (configuration not stated) [Palomid-529] had a drug sensitivity score of 0. In addition, in assay [2], the “absolute EC50 for viability” value was more than 10000 nM.

Regarding `CO[C@H]1C[C@@H]2CC[C@@H](C)[C@@](O)(O2)C(=O)C(=O)N2CCCC[C@H]2C(=O)O[C@H]([C@H](C)C[C@@H]2CC[C@@H](O)[C@H](OC)C2)CC(=O)[C@H](C)/C=C(\C)[C@@H](O)[C@@H](OC)C(=O)[C@H](C)C[C@H](C)/C=C/C=C/C=C/1C` [Sirolimus], the drug sensitivity score in assay [1] worked out at 4.2. The “absolute EC50 for viability” value in assay [2] is more than 100 nM.

Regarding `CCN(CC)CCNC(=O)c1c(C)[nH]c(/C=C2\C(=O)Nc3ccc(-c4csc(-c5ccccc5)n4)cc32)c1C` [Amcasertib], in assay [1], the drug sensitivity score amounted to 5.9. In addition, the “absolute EC50 for viability” value in assay [2] amounted to 2780 nM.

As for `CN1CCN(C2CCC(n3cc(-c4ccc(Oc5ccccc5)cc4)c4c(N)ncnc43)CC2)CC1` (configuration not stated), in assay [1], the drug sensitivity score was determined as 11.1. Further, the “absolute EC50 for viability” value in assay [2] was determined as 1000 nM.

`CCN(CC)Cc1ccc2cc(COC(=O)Nc3ccc(C(=O)NO)cc3)ccc2c1` [Givinostat] showed a drug sensitivity score in assay [1] of 3.6. Also, the “absolute EC50 for viability” value in assay [2] is more than 1000 nM.

Compound `CCN(CC)CCCC(C)Nc1ccnc2cc(Cl)ccc12` (configuration not stated) [Chloroquine] returned a drug sensitivity score in assay [1] of 10.3. Further, the “absolute EC50 for viability” value in assay [2] was determined as 12800 nM.

In turn, `CCCCCCCCCCCCCCCCOP(=O)([O-])OCC[N+](C)(C)C` [Miltefosine] came in with a drug sensitivity score in assay [1] of 2.7. For the same compound, the “absolute EC50 for viability” value in assay [2] was found to be 78200 nM.

In turn, `C[C@@H]1C=C2C(=O)O[C@@H]3CC[C@H](C1)[C@]23O` [Galiellalactone] came in with a drug sensitivity score in assay [1] of 1.3. In addition, the “absolute EC50 for viability” value in assay [2] was more than 25000 nM.

The compound `Cc1cccc(-c2[nH]c(CNc3ccccc3F)nc2-c2ccc3ncnn3c2)n1` [TEW-7197] displayed a drug sensitivity score in assay [1] of 2.1. In addition, the “absolute EC50 for viability” value in assay [2] is more than 2500 nM.

In assay [1], `O=C(Nc1ccc2[nH]nc(-c3ccncc3)c2c1)[C@@H]1CCN(CC(=O)N2CCN(c3ccc(-c4ncccn4)cc3)CC2)C1` yielded a drug sensitivity score of 4. For the same compound, in assay [2], the “absolute EC50 for viability” value is more than 10000 nM.

`CCOc1cc2ncc(C#N)c(Nc3ccc(OCc4ccccn4)c(Cl)c3)c2cc1NC(=O)/C=C/CN(C)C` [Neratinib] displayed a drug sensitivity score in assay [1] of 2.3. Also, in assay [2], the “absolute EC50 for viability” value was more than 1000 nM.

`CNC(=O)c1ccc2cc([C@@]3(O)CCn4cncc43)ccc2c1` [Orteronel] had a drug sensitivity score in assay [1] of 0. The “absolute EC50 for viability” value in assay [2] is more than 10000 nM.

`N#CCNC(=O)c1ccc(-c2ccnc(Nc3ccc(N4CCOCC4)cc3)n2)cc1` [Momelotinib]: in assay [1], the drug sensitivity score was 5.1. Also, the “absolute EC50 for viability” value in assay [2] was more than 10000 nM.

In assay [1], `Cc1ccc(NC(=O)c2ccc(CN3CCN(C)CC3)cc2)cc1Nc1nc(-c2cccnc2)cs1` [Masitinib] displayed a drug sensitivity score of 8.8. The “absolute EC50 for viability” value in assay [2] is 2860 nM.

In assay [1], `O=C(c1cccc(Cl)c1F)N1CCN(Cc2cccc(Nc3nccs3)n2)CC1` [MK-8745] registered a drug sensitivity score of 1.3. The “absolute EC50 for viability” value in assay [2] was more than 10000 nM.

Consider `CCNc1nc(Nc2cc(F)c(C(=O)N3CCOCC3)cc2OC)ncc1C(F)(F)F` [GNE-7915], for which the drug sensitivity score in assay [1] came to 0. In addition, in assay [2], the “absolute EC50 for viability” value is more than 1000 nM.

In the case of `C[C@@H]1CCN(C(=O)CC#N)C[C@@H]1N(C)c1ncnc2[nH]ccc12` [Tofacitinib], the drug sensitivity score in assay [1] was 0. For the same compound, in assay [2], the “absolute EC50 for viability” value was more than 5000 nM.

In assay [1], `C[C@@H]1COCCN1c1cc(C2([S@](C)(=N)=O)CC2)nc(-c2cc[nH]c3nccc2-3)n1` [AZD6738] registered a drug sensitivity score of 4.6. Also, the “absolute EC50 for viability” value in assay [2] was more than 25000 nM.

In assay [1], `CC(=O)Nc1cccc(-n2c(=O)n(C3CC3)c(=O)c3c(Nc4ccc(I)cc4F)n(C)c(=O)c(C)c32)c1` [Trametinib] returned a drug sensitivity score of 2.7. The “absolute EC50 for viability” value in assay [2] is more than 250 nM.

In assay [1], `COc1cc(OC)c(/C=C/S(=O)(=O)Cc2ccc(OC)c(NCC(=O)O)c2)c(OC)c1` [Rigosertib] had a drug sensitivity score of 8.9. Further, the “absolute EC50 for viability” value in assay [2] is more than 10000 nM.

`Cc1sc2c(c1C)C(c1ccc(Cl)cc1)=N[C@@H](CC(=O)OC(C)(C)C)c1nnc(C)n1-2` [JQ1] registered a drug sensitivity score in assay [1] of 5.3. The “absolute EC50 for viability” value in assay [2] was more than 10000 nM.

As for `CC(C)N(C[C@H]1O[C@@H](n2cnc3c(N)ncnc32)[C@H](O)[C@@H]1O)[C@H]1C[C@@H](CCc2nc3cc(C(C)(C)C)ccc3[nH]2)C1` [Pinometostat], the drug sensitivity score in assay [1] turned out to be 0. In addition, the “absolute EC50 for viability” value in assay [2] is more than 1000 nM.

With `Oc1ncnc2[nH]ncc12` [Allopurinol], in assay [1], the drug sensitivity score was determined as 0. In assay [2], the “absolute EC50 for viability” value was more than 10000 nM.

For `C=CC(=O)Nc1cccc(Nc2nc(Nc3ccc(OCCOC)cc3)ncc2F)c1` [Spebrutinib], in assay [1], the drug sensitivity score was 1.2. The “absolute EC50 for viability” value in assay [2] was more than 1000 nM.

`CC(C)C[C@H](NC(=O)[C@H](Cc1ccccc1)NC(=O)c1cnccn1)B(O)O` [Bortezomib] had a drug sensitivity score in assay [1] of 14.5. The “absolute EC50 for viability” value in assay [2] was determined as 50.7 nM.

The compound `O=C(NOCCO)c1ccc2cncn2c1Nc1ccc(I)cc1F` [GDC-0623] gave a drug sensitivity score in assay [1] of 0. For the same compound, the “absolute EC50 for viability” value in assay [2] is more than 2500 nM.

`Nc1nc(N)c2nc(-c3cccc(O)c3)c(-c3cccc(O)c3)nc2n1` [TG100-115] showed a drug sensitivity score in assay [1] of 2.5. Besides, the “absolute EC50 for viability” value in assay [2] is more than 10000 nM.

Consider `Cc1cnc(Nc2ccc(OCCN3CCCC3)cc2)nc1Nc1cccc(S(=O)(=O)NC(C)(C)C)c1` [Fedratinib], for which the drug sensitivity score in assay [1] was determined as 9.3. Further, the “absolute EC50 for viability” value in assay [2] stood at 1470 nM.

In the case of `Cc1cc(-c2ncc(CC(=O)Nc3ccc(-c4cnccn4)cn3)cc2C)ccn1` [NVP-LGK974], the drug sensitivity score in assay [1] is 0.4. Moreover, in assay [2], the “absolute EC50 for viability” value was more than 10000 nM.

Take `COc1cc(Nc2ncc(F)c(Nc3ccc4c(n3)N(COP(=O)(O)O)C(=O)C(C)(C)O4)n2)cc(OC)c1OC` [Fostamatinib]: the drug sensitivity score in assay [1] came to 5.2. The “absolute EC50 for viability” value in assay [2] was more than 2500 nM.

In the case of `CC(C)n1nc(-c2ccc3oc(N)nc3c2)c2c(N)ncnc21` [Sapanisertib], the drug sensitivity score in assay [1] came to 11.4. The “absolute EC50 for viability” value in assay [2] turned out to be 75.9 nM.

`FC(F)(F)c1ccc(/C=C/c2nc(COc3ccc(CCCCn4ccnn4)cc3)co2)cc1` [Mubritinib] gave a drug sensitivity score in assay [1] of 0.4. Moreover, the “absolute EC50 for viability” value in assay [2] is more than 1000 nM.

As for `NC(=O)Nc1cc(-c2cccc(F)c2)sc1C(=O)N[C@H]1CCCNC1` [AZD7762], the drug sensitivity score in assay [1] was found to be 7.2. In addition, the “absolute EC50 for viability” value in assay [2] was more than 1000 nM.

For `C=CC(=O)N1CCC(Oc2cc3c(Nc4ccc(Cl)c(Cl)c4F)ncnc3cc2OC)CC1` [Poziotinib], the drug sensitivity score in assay [1] worked out at 4.2. The “absolute EC50 for viability” value in assay [2] was more than 1000 nM.

For the compound `CC1(COc2ccc3c(c2)ncn3-c2ccc3cccc(N4CCC(N)CC4)c3n2)COC1` [Crenolanib], the drug sensitivity score in assay [1] is 8.5. The “absolute EC50 for viability” value in assay [2] came out at 1840 nM.

Compound `O=C1CCc2c(Oc3ccc4c(c3)[C@@H]3[C@H](O4)[C@H]3c3nc4cc(C(F)(F)F)ccc4[nH]3)ccnc2N1` [BGB-283] returned a drug sensitivity score in assay [1] of 4.2. For the same compound, the “absolute EC50 for viability” value in assay [2] is more than 10000 nM.

In turn, `Nc1cc(C(F)(F)F)c(-c2cc(N3CCOCC3)nc(N3CCOCC3)n2)cn1` [Buparlisib] showed a drug sensitivity score in assay [1] of 7.8. Moreover, the “absolute EC50 for viability” value in assay [2] stood at 2110 nM.

`Cn1cc(C2=C(c3cn(C4CCN(Cc5ccccn5)CC4)c4ccccc34)C(=O)NC2=O)c2ccccc21` [Enzastaurin] returned a drug sensitivity score in assay [1] of 0. The “absolute EC50 for viability” value in assay [2] was more than 10000 nM.

Compound `Nc1nc2[nH]cnc2c(=S)[nH]1` [Thioguanine] displayed a drug sensitivity score in assay [1] of 9.2. Besides, the “absolute EC50 for viability” value in assay [2] stood at 1180 nM.

For the compound `CO[C@H]1C[C@@H]2CC[C@@H](C)[C@@](O)(O2)C(=O)C(=O)N2CCCC[C@H]2C(=O)O[C@H]([C@H](C)C[C@@H]2CC[C@@H](OCCO)[C@H](OC)C2)CC(=O)[C@H](C)/C=C(\C)[C@@H](O)[C@@H](OC)C(=O)[C@H](C)C[C@H](C)/C=C/C=C/C=C/1C` [Everolimus], the drug sensitivity score in assay [1] is 5.2. For the same compound, in assay [2], the “absolute EC50 for viability” value was more than 100 nM.

The compound `O=C(O)c1ccc(O)c2ncccc12` [IOX-1] showed a drug sensitivity score in assay [1] of 0.6. Also, the “absolute EC50 for viability” value in assay [2] is more than 100000 nM.

`O=c1[nH]cc(F)c(=O)[nH]1` [Fluorouracil] had a drug sensitivity score in assay [1] of 0.9. Besides, the “absolute EC50 for viability” value in assay [2] was more than 10000 nM.
